Measurements: patent US20040110287A1, “Multi-step method for the differentiation of insulin positive, glucose responsive cells” (ES Cell International Pte Ltd., priority 2002, published 2004)

What follows are molecules tested on islet-like structures (assay: Glucose-stimulated insulin release and insulin content of islet-like structures). Details: 3 mM or 20 mM glucose, factor added to culture.
Assay type: cell-based
Procedure: After the complete differentiation protocol described in detail in Example 2, the islet-like structures were cultured in the presence of either 3 mM glucose or 20 mM glucose to assay for glucose-stimulated insulin release. Insulin release and total insulin content were measured using standard methods. Additionally, factors were added to the culture of islet-like structures.

Molecule | responsiveness of islet-like structures to high glucose (insulin release)
CC(C)(COP(=O)(O)OP(=O)(O)OC[C@H]1O[C@@H](n2cnc3c(N)ncnc32)[C@H](O)[C@@H]1OP(=O)(O)O)[C@@H](O)C(=O)NCCC(=O)NCCSC(=O)CC(=O)O [malonyl CoA, reference compound] | increased the responsiveness
NC(=O)c1cccnc1 [nicotinamide, reference compound] | increased the responsiveness
Desert hedgehog | increased the responsiveness
Indian hedgehog | increased the responsiveness
Sonic hedgehog | increased the responsiveness
exendin-4 [reference compound] | increased the responsiveness
leptin | increased the responsiveness
